# Laboratory results reported in patent US20230081426A1, “COMPOUNDS AND METHODS FOR KRAS MODULATION AND INDICATIONS THEREFOR” (Plexxikon Inc., priority 2020, published 2023).
# Molecular target: T1, G12D-mutant human KRAS (amino acid residues 1-188) (Homo sapiens, UniProt P01116, G12D)
# T1 construct: G12D or G12C-mutant human KRAS (amino acid residues 1-188) with FLAG tag; made in house; host or cells: E. coli
# Assay: KRAS Binding Disruption Assay (AlphaScreen; biotinylated KRpep-2d analogue or RAF1-RBD), G12D
# Settings: KRAS G12D; geometric mean; read-out: KRAS GMean IC50 (uM) MUTATION: G12D
# In short: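 Mutant KRAS (5-20 nM) incubated 1 h at 25° C with test compound and 5-20 nM biotinylated KRpep-2d analogue or RAF1-RBD in 20 mM HEPES pH 7.5, 100 mM NaCl, 5 mM MgCl2, 0.01% Tween-20, 0.01% BSA.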
# T1 sequence (P01116 1-188 isoform P01116-2 G12D): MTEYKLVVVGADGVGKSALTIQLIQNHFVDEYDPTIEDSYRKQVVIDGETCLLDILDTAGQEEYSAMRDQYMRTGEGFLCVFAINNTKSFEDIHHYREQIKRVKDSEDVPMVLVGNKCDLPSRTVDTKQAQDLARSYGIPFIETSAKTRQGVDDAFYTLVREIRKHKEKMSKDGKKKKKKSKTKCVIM
row,IC50 [µM],Structure (SMILES)
1,0.0001 to 10,"Oc1cc(-c2ccc3c(N4C[C@H]5CC[C@@H](C4)N5)nc(NCC4CCCC4O)nc3c2F)c2ccccc2c1 (stereo partly drawn) [P-0556, 4-(4-((1R,5S)-3,8-diazabicyclo[3.2.1]octan-3-yl)-8-fluoro-2-(((2-hydroxycyclopentyl)methyl)amino)quinazolin-7-yl)naphthalen-2-ol]"
2,0.0001 to 10,"CNCC1CN(c2nc(N3C[C@H]4CC[C@@H](C3)N4)c3ccc(-c4cc(O)cc5ccccc45)c(F)c3n2)C1 [P-0557, 4-(4-((1R,5S)-3,8-diazabicyclo[3.2.1]octan-3-yl)-8-fluoro-2-(3-((methylamino)methyl)azetidin-1-yl)quinazolin-7-yl)naphthalen-2-ol]"
3,0.0001 to 10,"CCc1cccc2c1N(c1ncc3c(N4C[C@H]5CC[C@@H](C4)N5)nc(OCC45CCCN4CCC5)nc3c1F)CCC2 [P-0558, 4-((1R,5S)-3,8-diazabicyclo[3.2.1]octan-3-yl)-7-(8-ethyl-3,4-dihydroquinolin-1(2H)-yl)-8-fluoro-2-((tetrahydro-1H-pyrrolizin-7a(5H)-yl)methoxy)pyrido[4,3-d]pyrimidine]"
4,0.0001 to 10,"CCc1cccc2c1N(c1ccc3c(N4C[C@H]5CC[C@@H](C4)N5)nc(OCC45CCCN4CCC5)nc3c1F)CCC2 [P-0559, 4-((1R,5S)-3,8-diazabicyclo[3.2.1]octan-3-yl)-7-(8-ethyl-3,4-dihydroquinolin-1(2H)-yl)-8-fluoro-2-((tetrahydro-1H-pyrrolizin-7a(5H)-yl)methoxy)quinazoline]"
5,0.0001 to 10,"CCc1cccc2c1N(c1ccc3c(N4C[C@H]5CC[C@@H](C4)N5)nc(OC[C@@H]4CCCN4C)nc3c1F)CCC2 [P-0560, 4-((1R,5S)-3,8-diazabicyclo[3.2.1]octan-3-yl)-7-(8-ethyl-3,4-dihydroquinolin-1(2H)-yl)-8-fluoro-2-(((S)-1-methylpyrrolidin-2-yl)methoxy)quinazoline]"
6,0.0001 to 10,"Fc1cc(Cl)c2c(-c3ccc4c(N5C[C@H]6CC[C@@H](C5)N6)nc(OCC56CCCN5CCC6)nc4c3F)c[nH]c2c1 [P-0561, 4-((1R,5S)-3,8-diazabicyclo[3.2.1]octan-3-yl)-7-(4-chloro-6-fluoro-1H-indol-3-yl)-8-fluoro-2-((tetrahydro-1H-pyrrolizin-7a(5H)-yl)methoxy)quinazoline]"
7,10 to 100,"Oc1cc(-c2nc(N3C[C@H]4CC[C@@H](C3)N4)c3ccc(-c4cc(O)cc5ccccc45)c(F)c3n2)c2ccccc2c1 [P-0562, 4,4′-(4-((1R,5S)-3,8-diazabicyclo[3.2.1]octan-3-yl)-8-fluoroquinazoline-2,7-diyl)bis(naphthalen-2-ol)]"
8,0.0001 to 10,"Oc1cc(-c2ccc3c(N4C[C@H]5CC[C@@H](C4)N5)nc(N4CC5(CCC(O)C5)C4)nc3c2F)c2ccccc2c1 (stereo partly drawn) [P-0563, 2-(4-((1R,5S)-3,8-diazabicyclo[3.2.1]octan-3-yl)-8-fluoro-7-(3-hydroxynaphthalen-1-yl)quinazolin-2-yl)-2-azaspiro[3.4]octan-6-ol]"
9,0.0001 to 10,"OCCC1CN(c2nc(N3C[C@H]4CC[C@@H](C3)N4)c3ccc(-c4cc(O)cc5ccccc45)c(F)c3n2)C1 [P-0564, 4-(4-((1R,5S)-3,8-diazabicyclo[3.2.1]octan-3-yl)-8-fluoro-2-(3-(2-hydroxyethyl)azetidin-1-yl)quinazolin-7-yl)naphthalen-2-ol]"
10,0.0001 to 10,"CN(C)CC1CN(c2nc(N3C[C@H]4CC[C@@H](C3)N4)c3ccc(-c4cc(O)cc5ccccc45)c(F)c3n2)C1 [P-0565, 4-(4-((1R,5S)-3,8-diazabicyclo[3.2.1]octan-3-yl)-2-(3-((dimethylamino)methyl)azetidin-1-yl)-8-fluoroquinazolin-7-yl)naphthalen-2-ol]"
11,0.0001 to 10,"Fc1c(-c2c[nH]c3cncc(Cl)c23)ccc2c(N3C[C@H]4CC[C@@H](C3)N4)nc(OCC34CCCN3CCC4)nc12 [P-0566, 4-((1R,5S)-3,8-diazabicyclo[3.2.1]octan-3-yl)-7-(4-chloro-1H-pyrrolo[2,3-c]pyridin-3-yl)-8-fluoro-2-((tetrahydro-1H-pyrrolizin-7a(5H)-yl)methoxy)quinazoline]"
12,0.0001 to 10,"COCc1cccc2[nH]cc(-c3ccc4c(N5C[C@H]6CC[C@@H](C5)N6)nc(OCC56CCCN5CCC6)nc4c3F)c12 [P-0567, 4-((1R,5S)-3,8-diazabicyclo[3.2.1]octan-3-yl)-8-fluoro-7-(4-(methoxymethyl)-1H-indol-3-yl)-2-((tetrahydro-1H-pyrrolizin-7a(5H)-yl)methoxy)quinazoline]"
13,10 to 100,"CN(CC(C)(C)CO)c1nc(N2C[C@H]3CC[C@@H](C2)N3)c2ccc(-c3cc(O)cc4ccccc34)c(F)c2n1 [P-0568, 4-(4-((1R,5S)-3,8-diazabicyclo[3.2.1]octan-3-yl)-8-fluoro-2-((3-hydroxy-2,2-dimethylpropyl)(methyl)amino)quinaz-olin-7-yl)naphthalen-2-ol]"
14,0.0001 to 10,"OCC1(COc2nc(N3C[C@H]4CC[C@@H](C3)N4)c3ccc(-c4cc(O)cc5ccccc45)c(F)c3n2)CC2(CCC2)C1 [P-0569, 4-(4-((1R,5S)-3,8-diazabicyclo[3.2.1]octan-3-yl)-8-fluoro-2-((2-(hydroxymethyl)spiro[3.3]heptan-2-yl)methoxy)quinazolin-7-yl)naphthalen-2-ol]"
15,0.0001 to 10,"Fc1c(-c2cccc3cccc(Cl)c23)ccc2c(N3C[C@H]4CC[C@@H](C3)N4)nc(OCC34CCCN3CCC4)nc12 [P-0570, 4-((1R,5S)-3,8-diazabicyclo[3.2.1]octan-3-yl)-7-(8-chloronaphthalen-1-yl)-8-fluoro-2-((tetrahydro-1H-pyrrolizin-7a(5H)-yl)methoxy)quinazoline]"
16,0.0001 to 10,"Fc1c(-c2cccc3cccc(Br)c23)ccc2c(N3C[C@H]4CC[C@@H](C3)N4)nc(OCC34CCCN3CCC4)nc12 [P-0571, 4-((1R,5S)-3,8-diazabicyclo[3.2.1]octan-3-yl)-7-(8-bromonaphthalen-1-yl)-8-fluoro-2-((tetrahydro-1H-pyrrolizin-7a(5H)-yl)methoxy)quinazoline]"
17,0.0001 to 10,"Fc1c(-c2cncc3cccc(Cl)c23)ccc2c(N3C[C@H]4CC[C@@H](C3)N4)nc(OCC34CCCN3CCC4)nc12 [P-0572, 4-((1R,5S)-3,8-diazabicyclo[3.2.1]octan-3-yl)-7-(5-chloroisoquinolin-4-yl)-8-fluoro-2-((tetrahydro-1H-pyrrolizin-7a(5H)-yl)methoxy)quinazoline]"
18,0.0001 to 10,"COCCc1cccc2[nH]cc(-c3ccc4c(N5C[C@H]6CC[C@@H](C5)N6)nc(OCC56CCCN5CCC6)nc4c3F)c12 [P-0573, 4-((1R,5S)-3,8-diazabicyclo[3.2.1]octan-3-yl)-8-fluoro-7-(4-(2-methoxyethyl)-1H-indol-3-yl)-2-((tetrahydro-1H-pyrrolizin-7a(5H)-yl)methoxy)quinazoline]"
19,0.0001 to 10,"OCc1cccc2[nH]cc(-c3ccc4c(N5C[C@H]6CC[C@@H](C5)N6)nc(OCC56CCCN5CCC6)nc4c3F)c12 [P-0574, (3-(4-((1R,5S)-3,8-diazabicyclo[3.2.1]octan-3-yl)-8-fluoro-2-((tetrahydro-1H-pyrrolizin-7a(5H)-yl)methoxy)quinazolin-7-yl)-1H-indol-4-yl)methanol]"
20,0.0001 to 10,"CC(C)C(COC(=O)C(F)(F)F)COc1nc(N2C[C@H]3CC[C@@H](C2)N3)c2ccc(-c3cc(O)cc4ccccc34)c(F)c2n1 (stereo partly drawn) [P-0575, 2-(((4-((1R,5S)-3,8-diazabicyclo[3.2.1]octan-3-yl)-8-fluoro-7-(3-hydroxynaphthalen-1-yl)quinazolin-2-yl)oxy)methyl)-3-methylbutyl 2,2,2-trifluoroacetate]"
21,0.0001 to 10,"OCC1(C(F)(F)F)CCN(c2nc(N3C[C@H]4CC[C@@H](C3)N4)c3ccc(-c4cc(O)cc5ccccc45)c(F)c3n2)C1 (stereo partly drawn) [P-0576, 4-(4-((1R,5S)-3,8-diazabicyclo[3.2.1]octan-3-yl)-8-fluoro-2-(3-(hydroxymethyl)-3-(trifluoromethyl)pyrrolidin-1-yl)quinazolin-7-yl)naphthalen-2-ol]"
22,0.0001 to 10,"NC1(CO)CN(c2nc(N3C[C@H]4CC[C@@H](C3)N4)c3ccc(-c4cc(O)cc5ccccc45)c(F)c3n2)C1 [P-0577, 4-(2-(3-amino-3-(hydroxymethyl)azetidin-1-yl)-4-((1R,5S)-3,8-diazabicyclo[3.2.1]octan-3-yl)-8-fluoroquinazolin-7-yl)naphthalen-2-ol]"
23,0.0001 to 10,"CCC1(N)CN(c2nc(N3C[C@H]4CC[C@@H](C3)N4)c3ccc(-c4cc(O)cc5ccccc45)c(F)c3n2)C1 [P-0578, 4-(2-(3-amino-3-ethylazetidin-1-yl)-4-((1R,5S)-3,8-diazabicyclo[3.2.1]octan-3-yl)-8-fluoroquinazolin-7-yl)naphthalen-2-ol]"
24,0.0001 to 10,"OCC1(CNc2nc(N3C[C@H]4CC[C@@H](C3)N4)c3ccc(-c4cc(O)cc5ccccc45)c(F)c3n2)CC(F)(F)C1 [P-0579, 4-(4-((1R,5S)-3,8-diazabicyclo[3.2.1]octan-3-yl)-2-(((3,3-difluoro-1-(hydroxymethyl)cyclobutyl)methyl)amino)-8-fluoroquinazolin-7-yl)naphthalen-2-ol]"
25,0.0001 to 10,"NCC1(COc2nc(N3C[C@H]4CC[C@@H](C3)N4)c3ccc(-c4cc(O)cc5ccccc45)c(F)c3n2)CC(F)(F)C1 [P-0580, 4-(2-((1-(aminomethyl)-3,3-difluorocyclobutyl)methoxy)-4-((1R,5S)-3,8-diazabicyclo[3.2.1]octan-3-yl)-8-fluoroquinazolin-7-yl)naphthalen-2-ol]"
26,0.0001 to 10,"OCC1(CNc2nc(N3C[C@H]4CC[C@@H](C3)N4)c3ccc(-c4cc(O)cc5ccccc45)c(F)c3n2)COC1 [P-0581, 4-(4-((1R,5S)-3,8-diazabicyclo[3.2.1]octan-3-yl)-8-fluoro-2-(((3-(hydroxymethyl)oxetan-3-yl)methyl)amino)quinazolin-7-yl)naphthalen-2-ol]"
